Results taken from US20230265116A1, “DEGRADATION OF (EGFR) BY CONJUGATION OF EGFR INHIBITORS WITH E3 LIGASE LIGAND AND METHODS OF USE” (BEIGENE, LTD., priority 2020, published 2023).

How the values were obtained:
Type in all cases: cell-based
EGFR WT (BaF3 WT cells) = target: T1, EGFR WT (BaF3 WT cells) (Homo sapiens, UniProt P00533); assay: EGFR degradation HTRF assay, BaF3 WT cells; details: BaF3 WT, 16h treatment; for Dmax: maximum percentage of degradation, read-out: WT Dmax (%)
T1 construct: expressed in transfected cells; host or cells: BaF3
T1 sequence (P00533 25-1210): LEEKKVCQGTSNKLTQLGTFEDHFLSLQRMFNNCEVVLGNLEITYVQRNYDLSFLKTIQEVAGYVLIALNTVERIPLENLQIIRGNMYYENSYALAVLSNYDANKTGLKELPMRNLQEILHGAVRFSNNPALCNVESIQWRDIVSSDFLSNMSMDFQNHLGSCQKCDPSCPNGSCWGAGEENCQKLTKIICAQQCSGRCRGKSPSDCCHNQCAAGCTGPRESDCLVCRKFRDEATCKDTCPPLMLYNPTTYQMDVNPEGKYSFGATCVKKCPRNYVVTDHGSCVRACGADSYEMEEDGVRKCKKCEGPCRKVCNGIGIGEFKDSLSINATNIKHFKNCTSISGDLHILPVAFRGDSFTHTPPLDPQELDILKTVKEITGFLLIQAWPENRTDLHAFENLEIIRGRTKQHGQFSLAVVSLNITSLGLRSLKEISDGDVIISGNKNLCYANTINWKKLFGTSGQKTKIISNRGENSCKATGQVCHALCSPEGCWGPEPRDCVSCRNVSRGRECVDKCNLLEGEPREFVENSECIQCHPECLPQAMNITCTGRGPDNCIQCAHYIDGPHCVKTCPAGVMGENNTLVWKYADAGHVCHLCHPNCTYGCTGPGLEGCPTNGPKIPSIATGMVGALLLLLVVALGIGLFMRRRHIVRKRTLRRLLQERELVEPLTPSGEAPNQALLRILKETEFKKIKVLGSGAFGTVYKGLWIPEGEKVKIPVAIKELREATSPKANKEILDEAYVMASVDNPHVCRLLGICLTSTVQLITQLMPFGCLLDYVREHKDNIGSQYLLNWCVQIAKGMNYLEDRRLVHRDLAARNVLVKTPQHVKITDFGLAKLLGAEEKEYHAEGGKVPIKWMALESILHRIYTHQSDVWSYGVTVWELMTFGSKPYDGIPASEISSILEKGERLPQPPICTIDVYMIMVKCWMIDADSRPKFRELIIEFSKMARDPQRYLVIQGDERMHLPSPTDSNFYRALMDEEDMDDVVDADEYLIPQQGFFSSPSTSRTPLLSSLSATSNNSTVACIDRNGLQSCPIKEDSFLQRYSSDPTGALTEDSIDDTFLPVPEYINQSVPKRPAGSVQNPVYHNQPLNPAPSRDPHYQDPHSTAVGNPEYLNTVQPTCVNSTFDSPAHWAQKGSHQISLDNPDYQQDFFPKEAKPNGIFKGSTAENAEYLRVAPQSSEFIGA
Experimental: BaF3 WT(wild type), BaF3-LTC(L858R/T790M/C797S) and BaF3-DTC(Del19/T790M/C797S) cells are treated with compounds diluted in 0.2% DMSO cell culture medium and incubate for 16h, 37° C., 5% CO2, H1975-#36, H1975-#28, H1975-#23 and HCC827 cells are treated with compounds diluted in 0.2% DMSO cell culture medium on day 2, incubate for 16h, 37° C., 5% CO2.the final concentriation of compounds in all assay is start with 10 uM, 5-fold dilution, total 8 doses were included.
After 16h treatment, add HTRF lysis buffer to each well; seal the plate and incubate 1 hour at room temperature on a plate shaker; Once the cells are lysed, 16 μL of cell lysate are transferred to a PE 384-well HTRF detection plate; 4 μL of pre-mixed HTRF antibodies are added to each well; Cover the plate with a plate sealer, spin 1000 rpm for 1 min, Incubate overnight at room temperature; Read on BMG PheraStar with HTRF protocol (337 nm-665 nm-620 nm).
The inhibition (degradation) percentage of the compound was calculated by the following equation: Inhibition percentage of Compound=100-100×(Signal-low control)/(High control-low control), wherein signal=each test compound group
High control=Cell group with added DMSO and without compound, indicating microplate readings without EGFR degradation;
Dmax is the maximum percentage of inhibition (degradation).
The IC50 (DC50) value of a compound can be obtained by fitting the following equation
Y=Bottom+(TOP−Bottom)/(1+((IC50/X)^hillslope))
Wherein, X and Y are known values, and IC50, Hillslope, Top and Bottom are the parameters obtained by fitting with software. Y is the inhibition percentage (calculated from the equation), X is the concentration of the compound; IC50 is the concentration of the compound when the 50% inhibition is reached. The smaller the IC50 value is, the stronger the inhibitory ability of the compound is. Vice versa, the higher the IC50 value is, the weaker the inhibitory ability of the compound is; Hillslope represents the slope of the fitted curve, generally around 1*; Bottom represents the minimum value of the curve obtained by data fitting, which is generally 0%±20%; Top represents the maximum value of the curve obtained by data fitting, which is generally 100%±20%. The experimental data were fitted by calculating and analyzing with Dotmatics data analysis software.

[1] = system: EGFR Del19/T790M/C797S (BaF3-DTC cells); assay: EGFR degradation HTRF assay, BaF3-DTC cells; details: 16h treatment; for DTC Dmax (%): maximum percentage of degradation; for DC50: read-out: DTC DC50
Method in brief: (§1)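 Cells treated 16 h at 37 °C, 5% CO2 in medium with 0.2% DMSO; top final concentration 10 uM, 5-fold dilution, 8 doses. Lysates read by HTRF (665/620 nm); degradation % versus DMSO high control, DC50 from four-parameter fit, Dmax as maximal degradation.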

[2] = target: T2, EGFR L858R/T790M/C797S (BaF3-LTC cells) (Homo sapiens, UniProt P00533, C797S/L858R/T790M); assay: EGFR degradation HTRF assay, BaF3-LTC cells; details: BaF3-LTC, 16h treatment; for Dmax: maximum percentage of degradation, read-out: LTC Dmax (%); for DC50: read-out: LTC DC50
T2 construct: expressed in transfected cells; host or cells: BaF3
T2 sequence (P00533 25-1210 T790M/C797S/L858R): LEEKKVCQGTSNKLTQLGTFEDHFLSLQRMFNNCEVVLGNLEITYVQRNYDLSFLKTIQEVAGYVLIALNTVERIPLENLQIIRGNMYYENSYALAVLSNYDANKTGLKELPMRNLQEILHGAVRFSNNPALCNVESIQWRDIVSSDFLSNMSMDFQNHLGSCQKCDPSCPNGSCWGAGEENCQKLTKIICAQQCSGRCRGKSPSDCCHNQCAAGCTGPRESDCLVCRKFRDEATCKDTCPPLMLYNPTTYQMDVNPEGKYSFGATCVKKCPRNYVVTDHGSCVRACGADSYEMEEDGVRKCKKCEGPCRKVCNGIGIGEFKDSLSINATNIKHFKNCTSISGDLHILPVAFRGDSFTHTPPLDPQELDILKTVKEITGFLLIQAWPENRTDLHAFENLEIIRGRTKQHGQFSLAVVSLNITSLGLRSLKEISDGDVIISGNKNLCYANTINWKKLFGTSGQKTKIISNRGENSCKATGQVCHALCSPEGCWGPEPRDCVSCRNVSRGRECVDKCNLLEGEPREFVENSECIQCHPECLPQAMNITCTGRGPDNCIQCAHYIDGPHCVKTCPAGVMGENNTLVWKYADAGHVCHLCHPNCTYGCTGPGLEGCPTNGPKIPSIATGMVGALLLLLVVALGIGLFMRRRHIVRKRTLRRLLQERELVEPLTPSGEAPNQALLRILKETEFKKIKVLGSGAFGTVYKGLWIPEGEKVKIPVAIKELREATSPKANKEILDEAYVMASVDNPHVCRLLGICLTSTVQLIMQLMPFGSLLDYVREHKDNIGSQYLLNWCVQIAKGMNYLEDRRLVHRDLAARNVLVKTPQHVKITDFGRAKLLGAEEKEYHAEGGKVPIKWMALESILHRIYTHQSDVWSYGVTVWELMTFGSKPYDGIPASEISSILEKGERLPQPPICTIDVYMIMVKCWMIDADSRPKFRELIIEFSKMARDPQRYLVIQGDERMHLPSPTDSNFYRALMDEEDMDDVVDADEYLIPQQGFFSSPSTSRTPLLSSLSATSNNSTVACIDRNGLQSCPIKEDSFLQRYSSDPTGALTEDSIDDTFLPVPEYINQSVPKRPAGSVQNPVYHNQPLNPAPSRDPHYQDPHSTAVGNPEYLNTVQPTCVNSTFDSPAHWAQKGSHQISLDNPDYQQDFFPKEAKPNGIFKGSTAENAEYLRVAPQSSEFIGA
Method in brief: as §1

[3] = target: T3, EGFR L858R/T790M (H1975-clone #36, homozygous) (Homo sapiens, UniProt P00533, L858R/T790M); assay: EGFR degradation HTRF assay, H1975-clone #36 cells; details: H1975 #36, 16h treatment; for Dmax: NCI-H1975, maximum percentage of degradation
T3 construct: designed to specifically target WT EGFR but preserve the L858R/T790M copy; host or cells: H1975-clone #36
T3 sequence (P00533 25-1210 T790M/L858R): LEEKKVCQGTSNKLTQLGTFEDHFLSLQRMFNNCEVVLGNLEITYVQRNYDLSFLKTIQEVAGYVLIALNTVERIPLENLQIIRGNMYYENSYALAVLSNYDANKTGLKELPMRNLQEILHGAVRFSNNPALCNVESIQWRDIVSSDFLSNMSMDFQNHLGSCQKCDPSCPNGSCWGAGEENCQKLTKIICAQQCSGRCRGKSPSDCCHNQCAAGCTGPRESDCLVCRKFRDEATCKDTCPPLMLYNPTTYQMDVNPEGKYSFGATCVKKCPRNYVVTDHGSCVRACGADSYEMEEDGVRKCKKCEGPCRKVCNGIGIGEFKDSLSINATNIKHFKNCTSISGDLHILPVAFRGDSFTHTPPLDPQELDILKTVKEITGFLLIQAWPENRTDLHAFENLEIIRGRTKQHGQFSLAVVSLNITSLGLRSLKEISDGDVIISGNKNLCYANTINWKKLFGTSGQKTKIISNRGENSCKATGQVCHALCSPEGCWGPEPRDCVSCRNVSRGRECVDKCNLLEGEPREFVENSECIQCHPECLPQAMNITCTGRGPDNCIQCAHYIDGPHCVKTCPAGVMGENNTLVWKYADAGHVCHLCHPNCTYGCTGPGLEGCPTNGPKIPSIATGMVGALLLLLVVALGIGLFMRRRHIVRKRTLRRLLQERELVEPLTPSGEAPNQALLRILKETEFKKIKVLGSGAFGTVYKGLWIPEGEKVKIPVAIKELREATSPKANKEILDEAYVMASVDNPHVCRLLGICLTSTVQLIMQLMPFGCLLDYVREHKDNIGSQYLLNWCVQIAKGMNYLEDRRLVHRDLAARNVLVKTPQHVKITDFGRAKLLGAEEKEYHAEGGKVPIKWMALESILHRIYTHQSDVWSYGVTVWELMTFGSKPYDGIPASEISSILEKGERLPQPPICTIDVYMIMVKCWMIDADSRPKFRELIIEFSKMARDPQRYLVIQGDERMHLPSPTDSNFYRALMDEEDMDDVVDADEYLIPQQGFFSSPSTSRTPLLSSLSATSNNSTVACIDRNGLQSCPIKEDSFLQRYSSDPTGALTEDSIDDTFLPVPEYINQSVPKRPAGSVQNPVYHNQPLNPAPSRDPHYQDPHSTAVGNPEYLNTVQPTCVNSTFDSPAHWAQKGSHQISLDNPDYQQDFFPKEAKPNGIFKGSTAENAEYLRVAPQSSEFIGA
Method in brief: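 H1975 clone #36, made homozygous for L858R/T790M EGFR by knockout of the WT allele, treated 16 h at 37 °C with compound in 0.2% DMSO medium. Eight doses from 10 uM, 5-fold dilutions. EGFR measured by HTRF in lysates. DC50 and Dmax fitted against DMSO controls.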

EGFR (HCC827 cells) = target: T4, EGFR (HCC827 cells) (Homo sapiens, UniProt P00533, DEL746-750); assay: EGFR degradation HTRF assay, HCC827 cells; details: HCC827, 16h treatment; for Dmax: maximum percentage of degradation
T4 construct: endogenous in cells; host or cells: HCC827
T4 sequence (P00533 with tags, fused parts or gaps DEL746-750): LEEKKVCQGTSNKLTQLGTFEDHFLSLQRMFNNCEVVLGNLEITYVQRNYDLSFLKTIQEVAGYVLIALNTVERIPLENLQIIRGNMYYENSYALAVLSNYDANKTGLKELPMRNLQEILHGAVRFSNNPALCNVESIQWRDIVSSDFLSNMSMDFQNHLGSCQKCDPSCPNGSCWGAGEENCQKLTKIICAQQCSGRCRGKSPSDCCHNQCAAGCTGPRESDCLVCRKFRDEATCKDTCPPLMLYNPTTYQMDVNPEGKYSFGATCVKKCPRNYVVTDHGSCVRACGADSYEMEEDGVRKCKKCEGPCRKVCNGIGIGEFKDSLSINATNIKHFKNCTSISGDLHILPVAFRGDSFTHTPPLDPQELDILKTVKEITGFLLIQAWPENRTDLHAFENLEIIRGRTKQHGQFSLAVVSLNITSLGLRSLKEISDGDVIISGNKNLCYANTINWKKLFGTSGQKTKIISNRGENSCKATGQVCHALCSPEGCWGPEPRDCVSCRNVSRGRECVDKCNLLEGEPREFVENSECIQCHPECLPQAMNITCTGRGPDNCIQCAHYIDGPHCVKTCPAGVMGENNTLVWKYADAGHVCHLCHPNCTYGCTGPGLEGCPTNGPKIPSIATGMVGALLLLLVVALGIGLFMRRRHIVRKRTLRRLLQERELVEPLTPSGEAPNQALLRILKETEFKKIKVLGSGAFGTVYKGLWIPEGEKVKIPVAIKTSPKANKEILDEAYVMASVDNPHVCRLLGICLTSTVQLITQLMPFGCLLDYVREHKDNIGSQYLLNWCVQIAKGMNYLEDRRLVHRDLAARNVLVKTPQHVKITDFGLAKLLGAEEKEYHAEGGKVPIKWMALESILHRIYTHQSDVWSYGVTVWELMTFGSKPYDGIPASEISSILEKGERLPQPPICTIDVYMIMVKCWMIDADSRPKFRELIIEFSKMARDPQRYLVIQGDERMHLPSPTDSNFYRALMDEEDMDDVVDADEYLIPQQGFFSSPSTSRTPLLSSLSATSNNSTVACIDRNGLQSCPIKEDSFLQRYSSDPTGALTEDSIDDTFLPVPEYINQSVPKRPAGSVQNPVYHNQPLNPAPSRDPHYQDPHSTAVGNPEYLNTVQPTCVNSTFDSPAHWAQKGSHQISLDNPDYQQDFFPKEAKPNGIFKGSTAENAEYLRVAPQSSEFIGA
Method in brief: as §1

DC50 (EGFR WT (BaF3 WT cells)) | Dmax (EGFR WT (BaF3 WT cells)) | DC50 [1] | Dmax [2] | DC50 [2] | DC50 [3] | Dmax [3] | DC50 (EGFR (HCC827 cells)) | Dmax (EGFR (HCC827 cells)) | Compound | DTC Dmax (%) [1]
> 10000 nM | 14.6% | 13.3 nM | 89% | 25.6 nM | 14.1 nM | 65.5% | 2.05 nM | 93.4% | CCc1cc(Nc2ncc(Br)c(Nc3ccc4nccnc4c3P(C)(C)=O)n2)c(OC)cc1N1CCC(N2CCN(CCC3CCN(c4ccc(C5CCC(=O)NC5=O)cc4)CC3)CC2)CC1 (stereo not drawn) [Example 23, 3-(4-(4-(2-(4-(1-(4-((5-bromo-4-((5-(dimethylphosphoryl)quinoxalin-6-yl)amino)pyrimidin-2-yl)amino)-2-ethyl-5-methoxyphenyl)piperidin-4-yl)piperazin-1-yl)ethyl)piperidin-1-yl)phenyl)piperidine-2,6-dione] | 95.73%
> 10000 nM | 26.2% | 15.1 nM | 81.2% | 21.6 nM | 8.6 nM | 71% | 6.2 nM | 80.8% | CCc1cc(Nc2ncc(Br)c(Nc3ccc4nccnc4c3P(C)(C)=O)n2)c(OC)cc1N1CCC(N2CCN(CCC3CCN(c4ccc(C5CCC(=O)NC5=O)c(C#N)c4)CC3)CC2)CC1 (stereo not drawn) [Example 34, 5-(4-(2-(4-(1-(4-((5-bromo-4-((5-(dimethylphosphoryl)quinoxalin-6-yl)amino)pyrimidin-2-yl)amino)-2-ethyl-5-methoxyphenyl)piperidin-4-yl)piperazin-1-yl)ethyl)piperidin-1-yl)-2-(2,6-dioxopiperidin-3-yl)benzonitrile] | 82.04%
2920 nM | 52.6% | 7.6 nM | 90.4% | 24.3 nM | 9.23 nM | 64.5% | 4.42 nM | 76.6% | CCc1cc(Nc2ncc(Br)c(Nc3ccc4nccnc4c3P(C)(C)=O)n2)c(OC)cc1N1CCC(N2CCN(CCc3ccc(NC4CCC(=O)NC4=O)cc3)CC2)CC1 (stereo not drawn) [Example 48, 3-((4-(2-(4-(1-(4-((5-bromo-4-((5-(dimethylphosphoryl)quinoxalin-6-yl)amino)pyrimidin-2-yl)amino)-2-ethyl-5-methoxyphenyl)piperidin-4-yl)piperazin-1-yl)ethyl)phenyl)amino)piperidine-2,6-dione] | 92.6%
> 10000 nM | 16.9% | 9.52 nM | 79.5% | 31.4 nM | 6.5 nM | 88.8% | 2.63 nM | 93.4% | CCc1cc(Nc2ncc(Br)c(Nc3ccc4nccnc4c3P(C)(C)=O)n2)c(OC)cc1N1CCC(N2CCN(CCCC3CN(c4ccc5c(c4)C(=O)N(C4CCC(=O)NC4=O)C5=O)C3)CC2)CC1 (stereo not drawn) [Example 56, 5-(3-(3-(4-(1-(4-((5-bromo-4-((5-(dimethylphosphoryl)quinoxalin-6-yl)amino)pyrimidin-2-yl)amino)-2-ethyl-5-methoxyphenyl)piperidin-4-yl)piperazin-1-yl)propyl)azetidin-1-yl)-2-(2,6-dioxopiperidin-3-yl)isoindoline-1,3-dione] | 82.17%
8860 nM | 51.6% | 42.2 nM | 91.2% | 89 nM | 16.5 nM | 73.4% | 4.8 nM | 86.8% | CCc1cc(Nc2ncc(Br)c(Nc3ccc4nccnc4c3P(C)(C)=O)n2)c(OC)cc1N1CCC(N2CCN(CCCN3CCN(c4ccc5c(c4)C(=O)N(C4CCC(=O)NC4=O)C5=O)CC3)CC2)CC1 (stereo not drawn) [Example 60, 5-(4-(3-(4-(1-(4-((5-bromo-4-((5-(dimethylphosphoryl)quinoxalin-6-yl)amino)pyrimidin-2-yl)amino)-2-ethyl-5-methoxyphenyl)piperidin-4-yl)piperazin-1-yl)propyl)piperazin-1-yl)-2-(2,6-dioxopiperidin-3-yl)isoindoline-1,3-dione] | 94.93%
> 10000 nM | 22.2% | 6.05 nM | 90.4% | 20.1 nM | 9.34 nM | 77.2% | 2.84 nM | 90% | CCc1cc(Nc2ncc(Br)c(Nc3ccc4nccnc4c3P(C)(C)=O)n2)c(OC)cc1N1CCC(N2CCN(C(=O)CCN3CCN(c4ccc5c(c4)C(=O)N(C4CCC(=O)NC4=O)C5=O)CC3)CC2)CC1 (stereo not drawn) [Example 61, 5-(4-(3-(4-(1-(4-((5-bromo-4-((5-(dimethylphosphoryl)quinoxalin-6-yl)amino)pyrimidin-2-yl)amino)-2-ethyl-5-methoxyphenyl)piperidin-4-yl)piperazin-1-yl)-3-oxopropyl)piperazin-1-yl)-2-(2,6-dioxopiperidin-3-yl)isoindoline-1,3-dione] | 96.02%
> 10000 nM | 15.4% | 8.05 nM | 75.5% | 14.2 nM | 2.31 nM | 85.6% | 2.53 nM | 73.9% | CCc1cc(Nc2ncc(Br)c(Nc3ccc4nccnc4c3P(C)(C)=O)n2)c(OC)cc1N1CCC(N2CCN(C(=O)[C@@H]3CCN(c4ccc5c(c4)C(=O)N(C4CCC(=O)NC4=O)C5=O)C3)CC2)CC1 (stereo partly drawn) [Example 65, 5-((R)-3-(4-(1-(4-((5-bromo-4-((5-(dimethylphosphoryl)quinoxalin-6-yl)amino)pyrimidin-2-yl)amino)-2-ethyl-5-methoxyphenyl)piperidin-4-yl)piperazine-1-carbonyl)pyrrolidin-1-yl)-2-(2,6-dioxopiperidin-3-yl)isoindoline-1,3-dione] | 80.45%
> 10000 nM | 29.1% | 15.1 nM | 91% | 77.2 nM | 5.3 nM | 97.3% | 3.34 nM | 89.2% | COc1cc(N2CCC(N3CCN(C(=O)C4CCN(CC5CCN(c6ccc7c(c6)C(=O)N(C6CCC(=O)NC6=O)C7=O)CC5)CC4)CC3)CC2)ccc1Nc1ncc(Cl)c(Nc2ccccc2P(C)(C)=O)n1 (stereo not drawn) [Example 113, 5-(4-((4-(4-(1-(4-((5-chloro-4-((2-(dimethylphosphoryl)phenyl)amino)pyrimidin-2-yl)amino)-3-methoxyphenyl)piperidin-4-yl)piperazine-1-carbonyl)piperidin-1-yl)methyl)piperidin-1-yl)-2-(2,6-dioxopiperidin-3-yl)isoindoline-1,3-dione] | 99.16%
> 10000 nM | 21.6% | 273 nM | 21.2% | > 10000 nM | 12.4 nM | 79.7% | 15.9 nM | 88.8% | COc1cc(N2CCC(N3CCN(C(=O)CCN4CCC(c5ccc(C6CCC(=O)NC6=O)cc5)CC4)CC3)CC2)ccc1Nc1ncc(Cl)c(Nc2ccccc2N(C)S(C)(=O)=O)n1 (stereo not drawn) [Example 123, N-(2-((5-chloro-2-((4-(4-(4-(3-(4-(4-(2,6-dioxopiperidin-3-yl)phenyl)piperidin-1-yl)propanoyl)piperazin-1-yl)piperidin-1-yl)-2-methoxyphenyl)amino)pyrimidin-4-yl)amino)phenyl)-N-methylmethanesulfonamide] | 83.94%
